In PubChem BioAssay AID342 (DTP/NCI, 2004):
Several values for one entry are separate records, joined by “and”; a condition that tells them apart may be missing. Equal entries are not always repeated.

Test system: Swiss mice, Sarcoma 180 sc, mean tumor weight T/C
Assay: NCI In Vivo Anticancer Drug Screen. Data for tumor model Sarcoma 180 (subcutaneous) in Swiss mice
Conditions: endpoint: mean tumor weight, higher = larger tumour
How it was run: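 T/C ratio: treated over vehicle-treated controls, measuring survival or tumor size in transplanted-tumor mice.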

`O=C1NC(=O)C2(CCCc3ccc(N(CCCl)CCCl)cc32)N1` (configuration not stated) was tested, and the T/C (dose: 16.0 mg/kg/injection, schedule: Q01DX007 (ip), vehicle: other) was 70 % of control, the T/C (dose: 16.0 mg/kg/injection, schedule: Q01DX007 (ip), vehicle: saline) was 67 % of control and the T/C (dose: 24.0 mg/kg/injection, schedule: Q01DX007 (ip), vehicle: other) was 107 % of control. For the same compound, the T/C (dose: 24.0 mg/kg/injection, schedule: Q01DX007 (ip), vehicle: saline) was 85 % of control, the T/C (dose: 36.0 mg/kg/injection, schedule: Q01DX007 (ip), vehicle: other) was 61 % of control and the T/C (dose: 36.0 mg/kg/injection, schedule: Q01DX007 (ip), vehicle: saline) was 75 % of control. For the same compound, the T/C (dose: 55.0 mg/kg/injection, schedule: Q01DX007 (ip), vehicle: saline) was 52 % of control, the T/C (dose: 125.0 mg/kg/injection, schedule: Q01DX007 (ip), vehicle: saline) was 29 % of control and the T/C (dose: 188.0 mg/kg/injection, schedule: Q01DX007 (ip), vehicle: other) was 65 % of control. For the same compound, the T/C (dose: 282.0 mg/kg/injection, schedule: Q01DX007 (ip), vehicle: other) was 80 % of control and the T/C (dose: 423.0 mg/kg/injection, schedule: Q01DX007 (ip), vehicle: other) was 81 % of control.
With `c1ccc2nc3c(nc2c1)[nH]c1ccccc13` the T/C (dose: 62.5 mg/kg/injection, schedule: Q01DX007 (ip), vehicle: carboxymethylcellulose (CMC)) was 76 % of control, the T/C (dose: 125.0 mg/kg/injection, schedule: Q01DX007 (ip), vehicle: carboxymethylcellulose (CMC)) was 67 % of control and the T/C (dose: 250.0 mg/kg/injection, schedule: Q01DX007 (ip), vehicle: carboxymethylcellulose (CMC)) was 114 % of control.
`Nc1c(Br)cc2c(c1Br)Cc1cc(Cl)ccc1-2` was tested, and the T/C (dose: 27.0 mg/kg/injection, schedule: Q01DX007 (ip), vehicle: other) was 52 % of control, the T/C (dose: 41.0 mg/kg/injection, schedule: Q01DX007 (ip), vehicle: other) was 44 % of control and the T/C (dose: 62.0 mg/kg/injection, schedule: Q01DX007 (ip), vehicle: other) was 60 % of control.
With `CCCCSc1ncnc2nc[nH]c12` the T/C (dose: 44.0 mg/kg/injection, schedule: Q01DX007 (ip), vehicle: carboxymethylcellulose (CMC)) was 55 % of control, the T/C (dose: 51.0 mg/kg/injection, schedule: Q01DX007 (ip), vehicle: carboxymethylcellulose (CMC)) was 53 % of control and the T/C (dose: 93.0 mg/kg/injection, schedule: Q01DX007 (ip), vehicle: carboxymethylcellulose (CMC)) was 41 % of control.
`C[C@]12CC[C@H](O)C[C@H]1CC[C@@H]1[C@@H]2CC[C@]2(C)[C@@H](C3=CC(=O)OC3)CC[C@]12O` was tested, and the T/C (dose: 5.0 mg/kg/injection, schedule: Q01DX007 (ip), vehicle: carboxymethylcellulose (CMC)) was 79 % of control, the T/C (dose: 10.0 mg/kg/injection, schedule: Q01DX007 (ip), vehicle: carboxymethylcellulose (CMC)) was 68 % of control and the T/C (dose: 25.0 mg/kg/injection, schedule: Q01DX007 (ip), vehicle: carboxymethylcellulose (CMC)) was 86 % of control.
For `O=C(O)c1[nH]c(=O)[nH]c(=O)c1F`, the T/C (dose: 3.35 mg/kg/injection, schedule: Q#A X014 (ip), vehicle: methylcellulose (MC)) was 62 % of control, the T/C (dose: 5.0 mg/kg/injection, schedule: Q#A X014 (ip), vehicle: methylcellulose (MC)) was 49 % of control and the T/C (dose: 7.5 mg/kg/injection, schedule: Q#A X014 (ip), vehicle: methylcellulose (MC)) was 46 % of control. The T/C (dose: 11.25 mg/kg/injection, schedule: Q#A X014 (ip), vehicle: methylcellulose (MC)) was 22 % of control.
With `C1CCCNCC1` the T/C (dose: 15.5 mg/kg/injection, schedule: Q01DX007 (ip), vehicle: other) was 92 % of control, the T/C (dose: 31.0 mg/kg/injection, schedule: Q01DX007 (ip), vehicle: other) was 69 % of control and the T/C (dose: 62.5 mg/kg/injection, schedule: Q01DX007 (ip), vehicle: other) was 103 % of control. The T/C (dose: 125.0 mg/kg/injection, schedule: Q01DX007 (ip), vehicle: other) was 69 % of control and the T/C (dose: 200.0 mg/kg/injection, schedule: Q01DX007 (ip), vehicle: other) was 69 % of control.
In the case of `CC(=O)OCC1OC(n2ncc(=O)[nH]c2=O)C(OC(C)=O)C1OC(C)=O` (configuration not stated), the T/C (dose: 375.0 mg/kg/injection, schedule: Q01DX007 (ip), vehicle: other) is reported as 74 % of control, the T/C (dose: 750.0 mg/kg/injection, schedule: Q01DX007 (ip), vehicle: other) is reported as 93 % of control and the T/C (dose: 1500.0 mg/kg/injection, schedule: Q01DX007 (ip), vehicle: other) is reported as 74 % of control.
For `O=C(O)c1ccccc1C(=O)OCc1ccccc1`, the T/C (dose: 500.0 mg/kg/injection, schedule: Q01DX007 (ip), vehicle: carboxymethylcellulose (CMC)) was 72 % of control.
For `CC(=O)OCC(=O)[C@@]1(O)CC[C@H]2[C@@H]3CCC4=CC(=O)C=C[C@]4(C)[C@@]3(F)[C@@H](O)C[C@@]21C`, the T/C (dose: 20.0 mg/kg/injection, schedule: Q#A X014 (sc), vehicle: steriod suspending solution) was 32 % of control, the T/C (dose: 30.0 mg/kg/injection, schedule: Q#A X014 (sc), vehicle: steriod suspending solution) was 32 % of control and the T/C (dose: 45.0 mg/kg/injection, schedule: Q#A X014 (sc), vehicle: steriod suspending solution) was 30 % of control. For the same compound, the T/C (dose: 67.5 mg/kg/injection, schedule: Q#A X014 (sc), vehicle: steriod suspending solution) was 24 % of control and 32 % of control.
For `CC1(C)O[C@@H]2C[C@H]3[C@@H]4CCC5=CC(=O)CC[C@]5(C)[C@@]4(F)[C@@H](O)C[C@]3(C)[C@]2(C(=O)CO)O1`, the T/C (dose: 2.2 mg/kg/injection, schedule: Q#A X014 (sc), vehicle: steriod suspending solution) was 53 % of control and 63 % of control, the T/C (dose: 2.3 mg/kg/injection, schedule: Q01DX007 (sc), vehicle: steriod suspending solution) was 61 % of control and the T/C (dose: 3.3 mg/kg/injection, schedule: Q#A X014 (sc), vehicle: steriod suspending solution) was 62 % of control. For the same compound, the T/C (dose: 3.5 mg/kg/injection, schedule: Q01DX007 (sc), vehicle: steriod suspending solution) was 47 % of control, the T/C (dose: 5.0 mg/kg/injection, schedule: Q#A X014 (sc), vehicle: steriod suspending solution) was 27 % of control and the T/C (dose: 5.3 mg/kg/injection, schedule: Q01DX007 (sc), vehicle: steriod suspending solution) was 43 % of control. For the same compound, the T/C (dose: 7.5 mg/kg/injection, schedule: Q#A X014 (sc), vehicle: steriod suspending solution) was 24 % of control, the T/C (dose: 12.0 mg/kg/injection, schedule: Q01DX007 (sc), vehicle: steriod suspending solution) was 36 % of control and the T/C (dose: 27.0 mg/kg/injection, schedule: Q01DX007 (sc), vehicle: steriod suspending solution) was 39 % of control and 40 % of control. For the same compound, the T/C (dose: 40.0 mg/kg/injection, schedule: Q01DX007 (sc), vehicle: steriod suspending solution) was 32 % of control, the T/C (dose: 60.0 mg/kg/injection, schedule: Q01DX007 (sc), vehicle: steriod suspending solution) was 24 % of control and the T/C (dose: 90.0 mg/kg/injection, schedule: Q01DX007 (sc), vehicle: steriod suspending solution) was 19 % of control and 30 % of control. The T/C (dose: 130.0 mg/kg/injection, schedule: Q01DX007 (sc), vehicle: steriod suspending solution) was 16 % of control.
In the case of `CC(=O)Nc1ccc(/C=N/Nc2ccc([N+](=O)[O-])cn2)cc1`, the T/C (dose: 45.0 mg/kg/injection, schedule: Q01DX007 (ip), vehicle: carboxymethylcellulose (CMC)) is reported as 62 % of control, the T/C (dose: 67.0 mg/kg/injection, schedule: Q01DX007 (ip), vehicle: carboxymethylcellulose (CMC)) is reported as 79 % of control and the T/C (dose: 83.3 mg/kg/injection, schedule: Q#A X014 (ip), vehicle: carboxymethylcellulose (CMC)) is reported as 77 % of control. For the same compound, the T/C (dose: 83.3 mg/kg/injection, schedule: Q#A X014 (ip), vehicle: methylcellulose (MC)) was 61 % of control, the T/C (dose: 125.0 mg/kg/injection, schedule: Q#A X014 (ip), vehicle: carboxymethylcellulose (CMC)) was 22 % of control and the T/C (dose: 187.5 mg/kg/injection, schedule: Q#A X014 (ip), vehicle: carboxymethylcellulose (CMC)) was 48 % of control. The T/C (dose: 281.25 mg/kg/injection, schedule: Q#A X014 (ip), vehicle: carboxymethylcellulose (CMC)) was 47 % of control.
For `COc1ccc2c(c1)CC[C@@H]1[C@@H]2CC[C@]2(C)[C@H](O)[C@H](O)C[C@@H]12`, the T/C (dose: 0.5 mg/kg/injection, schedule: Q01DX007 (sc), vehicle: steriod suspending solution) was 117 % of control, the T/C (dose: 1.25 mg/kg/injection, schedule: Q01DX007 (sc), vehicle: steriod suspending solution) was 81 % of control and the T/C (dose: 2.5 mg/kg/injection, schedule: Q01DX007 (sc), vehicle: steriod suspending solution) was 66 % of control and 90 % of control. The T/C (dose: 5.0 mg/kg/injection, schedule: Q01DX007 (sc), vehicle: steriod suspending solution) was 60 % of control and the T/C (dose: 10.0 mg/kg/injection, schedule: Q01DX007 (sc), vehicle: steriod suspending solution) was 61 % of control.
With `CCC(c1ccc2cc(OC)ccc2c1)C(C)(C)C(=O)F` (configuration not stated) the T/C (dose: 55.0 mg/kg/injection, schedule: Q01DX007 (sc), vehicle: steriod suspending solution) was 35 % of control and 52 % of control, the T/C (dose: 83.0 mg/kg/injection, schedule: Q01DX007 (sc), vehicle: steriod suspending solution) was 31 % of control and 49 % of control and the T/C (dose: 125.0 mg/kg/injection, schedule: Q01DX007 (sc), vehicle: steriod suspending solution) was 27 % of control and 39 % of control. The T/C (dose: 188.0 mg/kg/injection, schedule: Q01DX007 (sc), vehicle: steriod suspending solution) was 39 % of control and 40 % of control.
With `C=CCSc1ncnc2c1ncn2C1OC(CO)C(O)C1O` (configuration not stated) the T/C (dose: 25.0 mg/kg/injection, schedule: Q01DX007 (ip), vehicle: saline) was 80 % of control and 83 % of control, the T/C (dose: 100.0 mg/kg/injection, schedule: Q01DX007 (ip), vehicle: saline) was 35 % of control and 52 % of control and the T/C (dose: 200.0 mg/kg/injection, schedule: Q01DX007 (ip), vehicle: saline) was 34 % of control and 49 % of control.
